This note sets out measurements from article PMC3849818 (Journal of medicinal chemistry, 2013).

One experiment concerns the target T1, OX2 receptor (Homo sapiens, UniProt O43614).
T1 sequence (O43614 1-444): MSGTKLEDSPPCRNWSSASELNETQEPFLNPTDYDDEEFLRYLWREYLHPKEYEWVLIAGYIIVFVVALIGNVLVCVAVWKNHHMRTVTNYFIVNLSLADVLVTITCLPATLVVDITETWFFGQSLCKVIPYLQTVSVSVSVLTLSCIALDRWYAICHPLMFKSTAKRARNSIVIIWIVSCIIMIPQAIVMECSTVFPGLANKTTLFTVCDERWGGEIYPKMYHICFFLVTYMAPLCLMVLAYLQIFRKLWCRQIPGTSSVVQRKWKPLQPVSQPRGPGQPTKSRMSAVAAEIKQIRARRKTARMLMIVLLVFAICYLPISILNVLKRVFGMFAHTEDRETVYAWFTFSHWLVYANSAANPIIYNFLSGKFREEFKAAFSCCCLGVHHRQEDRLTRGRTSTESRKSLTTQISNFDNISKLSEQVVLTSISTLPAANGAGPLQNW
The experiment in a line: OX2 calcium mobilization functional assay. The format is cell-based.

The target of a further experiment is T2, orexin 1 (OX1) receptor (Homo sapiens, UniProt O43613).
T2 sequence (O43613 1-425): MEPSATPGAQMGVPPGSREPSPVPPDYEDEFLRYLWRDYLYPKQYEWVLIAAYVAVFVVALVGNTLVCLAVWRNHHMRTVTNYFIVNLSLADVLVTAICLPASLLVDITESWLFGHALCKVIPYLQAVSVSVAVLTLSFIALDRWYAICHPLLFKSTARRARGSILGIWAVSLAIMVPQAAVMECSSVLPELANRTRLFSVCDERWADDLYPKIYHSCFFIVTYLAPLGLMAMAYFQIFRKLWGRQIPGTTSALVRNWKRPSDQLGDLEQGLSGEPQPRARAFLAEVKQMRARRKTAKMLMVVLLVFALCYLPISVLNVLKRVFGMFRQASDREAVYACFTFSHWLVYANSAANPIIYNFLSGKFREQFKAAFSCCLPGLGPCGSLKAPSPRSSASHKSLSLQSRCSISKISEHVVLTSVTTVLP
Nature of the experiment: OX1 calcium mobilization functional assay. To be noted: for OX2/OX1: ratio of Ke values. Format: cell-based. (Calcium flux is commonly read through the fluorescence of an indicator in the cells.)

By Kd is commonly meant a measure of binding affinity in units of concentration. For the compound `COc1ccc(CC2c3cc(OC)c(OC)cc3CCN2CC(=O)Nc2ccccc2-c2ccccc2)cc1OC` (stereo not shown) [Compound 44, 2-{1-[(3,4-dimethoxyphenyl)methyl]-6,7-dimethoxy-1,2,3,4-tetrahydroisoquinolin-2-yl}-N-(2-phenylphenyl)acetamide], the Kd at OX2 receptor turned out to be 1.76 ± 0.37 µM.
With `COc1ccc(CC2c3cc(OC)c(OC)cc3CCN2CC(=O)N(C)Cc2ccccc2)cc1OC` (stereo not shown) [Compound 39, N-benzyl-2-{1-[(3,4-dimethoxyphenyl)methyl]-6,7-dimethoxy-1,2,3,4-tetrahydroisoquinolin-2-yl}-N-methylacetamide], the OX2/OX1 at orexin 1 (OX1) receptor is >4.8. Further, the dissociation constant Kd on OX2 receptor was > 10 µM.
For `COc1ccc(CC2c3cc(OC)c(OC)cc3CCN2CC(=O)NCc2ccc(N(C)C)cc2)cc1OC` (stereo not shown) [Compound 56, 2-{1-[(3,4-dimethoxyphenyl)methyl]-6,7-dimethoxy-1,2,3,4-tetrahydroisoquinolin-2-yl}-N-{[4-(dimethylamino)phenyl]methyl}acetamide], the OX2/OX1 at orexin 1 (OX1) receptor is reported as >3.1. For the same compound, the Kd on OX2 receptor is > 10 µM.
Turning to `COc1ccc(CC2c3cc(OCC4CCCCC4)c(OC)cc3CCN2CC(=O)NCc2ccccc2)cc1OC` (stereo not shown) [Compound 17, N-benzyl-2-[7-(cyclohexylmethoxy)-1-[(3,4-dimethoxyphenyl)methyl]-6-methoxy-1,2,3,4-tetrahydroisoquinolin-2-yl]acetamide], the “OX1 activity, bound stated” value at orexin 1 (OX1) receptor (no activity up to the stated concentration) was > 10 µM.
For the compound `CCCCCCCNC(=O)CN1CCc2cc(OC)c(OC)cc2C1Cc1ccc(OC)c(OC)c1` (stereo not shown) [Compound 60, 2-{1-[(3,4-dimethoxyphenyl)methyl]-6,7-dimethoxy-1,2,3,4-tetrahydroisoquinolin-2-yl}-N-heptylacetamide], the Kd on OX2 receptor came to 2.31 ± 0.54 µM.
As to `CCCCCCNC(=O)Nc1ccc(CNC(=O)CN2CCc3cc(OC)c(OC)cc3C2Cc2ccc(OC)c(OC)c2)cc1` (stereo not shown) [Compound 59, 2-{1-[(3,4-dimethoxyphenyl)methyl]-6,7-dimethoxy-1,2,3,4-tetrahydroisoquinolin-2-yl}-N-({4-[(hexylcarbamoyl)amino]phenyl}methyl)acetamide], at OX2 receptor, the dissociation constant Kd was 2.44 ± 0.67 µM.
On to `COc1cc2c(cc1O)C(Cc1ccc(OC)c(OC)c1)N(CC(=O)NCc1ccccc1)CC2` (stereo not shown) [Compound 11, N-benzyl-2-{1-[(3,4-dimethoxyphenyl)methyl]-7-hydroxy-6-methoxy-1,2,3,4-tetrahydroisoquinolin-2-yl}acetamide], for which the Kd at OX2 receptor amounted to 5.74 ± 0.096 µM.
The same measure, in the same setting: the value for `COc1ccc(CC2c3cc(OS(C)(=O)=O)c(OC)cc3CCN2CC(=O)NCc2ccccc2)cc1OC` (stereo not shown) [Compound 26, 2-[(benzylcarbamoyl)methyl]-1-[(3,4-dimethoxyphenyl)methyl]-6-methoxy-1,2,3,4-tetrahydroisoquinolin-7-yl methanesulfonate] was 2.17 ± 0.79 µM.
On to `COc1ccc(CC2c3cc(OC)c(OC)cc3CCN2CC(=O)NCc2cccnc2)cc1OC` (stereo not shown) [Compound 54, 2-{1-[(3,4-dimethoxyphenyl)methyl]-6,7-dimethoxy-1,2,3,4-tetrahydroisoquinolin-2-yl}-N-(pyridin-3-ylmethyl)acetamide], for which, on orexin 1 (OX1) receptor, the OX2/OX1 is >65.8. Further, the dissociation constant Kd at OX2 receptor is > 10 µM.
Taken in the same sequence, the figures for `COc1ccc(CC2c3cc(OCC(F)(F)F)c(OC)cc3CCN2CC(=O)NCc2ccccn2)cc1OC` (stereo not shown) [Compound 71, 2-{1-[(3,4-dimethoxyphenyl)methyl]-6-methoxy-7-(2,2,2-trifluoroethoxy)-1,2,3,4-tetrahydroisoquinolin-2-yl}-N-(pyridin-2-ylmethyl)acetamide] were >444 and > 10 µM.
`COc1ccc(CC2c3cc(OC)c(OC)cc3CCN2CC(=O)N2CCc3ccccc3C2)cc1OC` (stereo not shown) [Compound 35, 2-{1-[(3,4-dimethoxyphenyl)methyl]-6,7-dimethoxy-1,2,3,4-tetrahydroisoquinolin-2-yl}-1-(1,2,3,4-tetrahydroisoquinolin-2-yl)ethan-1-one]: the Kd on OX2 receptor worked out at 9 ± 0.76 µM.
As to `COc1ccc(CC2c3cc(OC)c(OC)cc3CCN2CC(=O)NCc2ccc(NC(C)=O)cc2)cc1OC` (stereo not shown) [Compound 57, 2-{1-[(3,4-dimethoxyphenyl)methyl]-6,7-dimethoxy-1,2,3,4-tetrahydroisoquinolin-2-yl}-N-[(4-acetamidophenyl)methyl]acetamide], the “OX1 activity in words” value at orexin 1 (OX1) receptor (no concentration given) is given as “total loss of OX1 activity”.
Consider `COc1ccc(CC2c3cc(OC)c(OC)cc3CCN2CC(=O)NCc2ccc(F)cc2)cc1OC` (stereo not shown) [Compound 52, 2-{1-[(3,4-dimethoxyphenyl)methyl]-6,7-dimethoxy-1,2,3,4-tetrahydroisoquinolin-2-yl}-N-[(4-fluorophenyl)methyl]acetamide], for which the Kd on OX2 receptor is 3.46 ± 1 µM.
Same read-out and setting: the value for `COc1ccc(CC2c3cc(OS(=O)(=O)c4ccccc4)c(OC)cc3CCN2CC(=O)NCc2ccccc2)cc1OC` (stereo not shown) [Compound 29, 2-[(benzylcarbamoyl)methyl]-1-[(3,4-dimethoxyphenyl)methyl]-6-methoxy-1,2,3,4-tetrahydroisoquinolin-7-yl benzenesulfonate] was 2.9 ± 0.191 µM; that for `COc1ccc(CC2c3cc(OC)c(OC)cc3CCN2CC(=O)NC2CCCc3ccccc32)cc1OC` (stereo not shown) [Compound 47, 2-{1-[(3,4-dimethoxyphenyl)methyl]-6,7-dimethoxy-1,2,3,4-tetrahydroisoquinolin-2-yl}-N-(1,2,3,4-tetrahydronaphthalen-1-yl)acetamide] was 0.655 ± 0.19 µM.
With `COc1ccc(CC2c3cc(OCCCCOc4ccccc4)c(OC)cc3CCN2CC(=O)NCc2ccccc2)cc1OC` (stereo not shown) [Compound 24, N-benzyl-2-{1-[(3,4-dimethoxyphenyl)methyl]-6-methoxy-7-(4-phenoxybutoxy)-1,2,3,4-tetrahydroisoquinolin-2-yl}acetamide], on orexin 1 (OX1) receptor, the OX2/OX1 is given as >230. At OX2 receptor, the dissociation constant Kd is > 10 µM.
As for `COc1ccc(CC2c3cc(OCCC(C)C)c(OC)cc3CCN2CC(=O)NCc2ccccc2)cc1OC` (stereo not shown) [Compound 16, N-benzyl-2-{1-[(3,4-dimethoxyphenyl)methyl]-6-methoxy-7-(3-methylbutoxy)-1,2,3,4-tetrahydroisoquinolin-2-yl}acetamide], the Kd at OX2 receptor worked out at 3.92 ± 1.2 µM.
For `COc1ccc(CC2c3cc(OC)c(OC)cc3CCN2CC(=O)NCc2ccccn2)cc1OC` (stereo not shown) [Compound 53, 2-{1-[(3,4-dimethoxyphenyl)methyl]-6,7-dimethoxy-1,2,3,4-tetrahydroisoquinolin-2-yl}-N-(pyridin-2-ylmethyl)acetamide], at orexin 1 (OX1) receptor, the OX2/OX1 was >38.3. The Kd on OX2 receptor is > 10 µM.
The matching figures for `CCOc1cc2c(cc1OC)CCN(CC(=O)NCc1ccccn1)C2Cc1ccc(OC)c(OC)c1` (stereo not shown) [Compound 73, 2-{1-[(3,4-dimethoxyphenyl)methyl]-7-ethoxy-6-methoxy-1,2,3,4-tetrahydroisoquinolin-2-yl}-N-(pyridin-2-ylmethyl)acetamide]: >114 and > 10 µM.
The matching figures for `CCCCCCOc1cc2c(cc1OC)CCN(CC(=O)NCc1ccccc1)C2Cc1ccc(OC)c(OC)c1` (stereo not shown) [Compound 15, N-benzyl-2-{1-[(3,4-dimethoxyphenyl)methyl]-7-(hexyloxy)-6-methoxy-1,2,3,4-tetrahydroisoquinolin-2-yl}acetamide]: >31.7 and > 10 µM.
Taken in the same sequence, the figures for `CCCOc1cc2c(cc1OC)CCN(CC(=O)NCc1cccnc1)C2Cc1ccc(OC)c(OC)c1` (stereo not shown) [Compound 70, 2-{1-[(3,4-dimethoxyphenyl)methyl]-6-methoxy-7-propoxy-1,2,3,4-tetrahydroisoquinolin-2-yl}-N-(pyridin-3-ylmethyl)acetamide] were >239 and > 10 µM.
`COc1ccc(CC2c3cc(OC)c(OC)cc3CCN2CC(=O)NCc2ccc(Cl)cc2)cc1OC` (stereo not shown) [Compound 51, N-[(4-chlorophenyl)methyl]-2-{1-[(3,4-dimethoxyphenyl)methyl]-6,7-dimethoxy-1,2,3,4-tetrahydroisoquinolin-2-yl}acetamide]: on OX2 receptor, the Kd is 2.27 ± 0.11 µM.
The same measure, in the same setting: with `COc1ccc(CC2c3cc(OC)c(OC)cc3CCN2CC(=O)N2CCCC(c3ccccc3)C2)cc1OC` (stereo not shown) [Compound 36, 2-{1-[(3,4-dimethoxyphenyl)methyl]-6,7-dimethoxy-1,2,3,4-tetrahydroisoquinolin-2-yl}-1-(3-phenylpiperidin-1-yl)ethan-1-one] the figure was 9.03 ± 3.8 µM.
Take `COc1ccc(CC2c3cc(OC)c(OC)cc3CCN2CC(=O)Nc2cccc3ccccc23)cc1OC` (stereo not shown) [Compound 41, 2-{1-[(3,4-dimethoxyphenyl)methyl]-6,7-dimethoxy-1,2,3,4-tetrahydroisoquinolin-2-yl}-N-(naphthalen-1-yl)acetamide]: the “fold less potent than the benzyl compound (OX1)” value on orexin 1 (OX1) receptor (relative to compound 6) was “around 3.6 fold”.
Regarding `CCCCOc1cc2c(cc1OC)CCN(CC(=O)NCc1ccccc1)C2Cc1ccc(OC)c(OC)c1` (stereo not shown) [Compound 14, N-benzyl-2-{7-butoxy-1-[(3,4-dimethoxyphenyl)methyl]-6-methoxy-1,2,3,4-tetrahydroisoquinolin-2-yl}acetamide], the equilibrium dissociation constant (Kd) on OX2 receptor is 1.89 ± 0.48 µM.
